The record followed here is patent publication US8569302B2, “Inhibitors of flaviviridae viruses” (Gilead Sciences, Inc., priority 2009, dated 2013).

The test system of the first assay is human hepatoma Huh-7 cell line harboring a HCV replicon. As to the kind of experiment: HCV replicon assay (inhibition of viral replication, luciferase readout). The settings on record: Hepatitis C virus, 72 h, Huh-7 HCV replicon cells, 3 days incubation. The class given is cell-based. On the procedure: The anti-HCV activity of the compounds of this invention was tested in a human hepatoma Huh-7 cell line harboring a HCV replicon. The assay comprised the following steps:
Step 1: Compound Preparation and Serial Dilution.
Serial dilution was performed in 100% DMSO in a 384-well plate. A solution containing a compound at 225-fold concentration of the starting final serial dilution concentration was prepared in 100% DMSO and 15 μL added to the pre-specified wells in column 3 or 13 of a polypropylene 384-well plate. The rest of the 384-well plate was filled with 10 μL 100% DMSO except for columns 23 and 24, where 10 μL of 500 μM a HCV protease inhibitor (ITMN-191) in 100% DMSO was added. The HCV protease inhibitor was used a control of 100% inhibition of HCV replication. The plate was then placed on a Biomek FX Workstation to start the serial dilution. The serial dilution was performed for ten cycles of 3-fold dilution from column 3 to 12 or from column 13 to 22.
Step 2: Cell Culture Plate Preparation and Compound Addition
To each well of a black polypropylene 384-well plate, 90 μL of cell media containing 1600 suspended Huh-7 HCV replicon cells was added with a Biotek uFlow Workstation. A volume of 0.4 μL of the compound solution was transferred from the serial dilution plate to the cell culture plate on a Biomek FX Workstation. The DMSO concentration in the final assay condition was 0.44%. The plates were incubated for 3 days at 37° C. with 5% CO2 and 85% humidity.
Step 3: Detection of Cytotoxicity and Inhibition of Viral Replication
a) Assessment of cytotoxicity: The media in the 384-well cell culture plate was aspirated with a Biotek EL405 plate-washer. A volume of 50 μL of a solution containing 400 nM Calcein AM in 100% PBS was added to each well of the plate with a Biotek uFlow Workstation. The plate was incubated for 30 minutes at room temperature before the fluorescence signal ([…]) was measured with a Perkin Elmer Envision Plate Reader.
b) Assessment of inhibition of viral replication: The calcein-PBS solution in the 384-well cell culture plate was aspirated with a Biotek EL405 plate-washer. A volume of 20 μL of Dual-Glo luciferase buffer (Promega, Dual-Glo Luciferase Assay Reagent, cat. #E298B) was added to each well of the plate with a Biotek uFlow Workstation. The plate was incubated for 10 minutes at room temperature. A volume of 20 μL of a solution containing 1:100 mixture of Dual-Glo Stop & Glo substrate (Promega, Dual-Glo Luciferase Assay Reagent, cat. #E313B) and Dual-Glo Stop & Glo buffer (Promega, Dual-Glo Luciferase Assay Reagent, cat. #E314B) was then added to each well of the plate with a Biotek uFlow Workstation. The plate was incubated at room temperature for 10 minutes before the luminescence signal was measured with a Perkin Elmer Envision Plate Reader.
The percent cytotoxicity was determined by calcein AM conversion to fluorescent product. The average fluorescent signal from the DMSO control wells was defined as 100% nontoxic. The individual fluorescent signal from testing compound treated well was divided by the average signal from DMSO control wells and then multiplied by 100% to get the percent viability. The percent anti-HCV replication activity was determined by the luminescence signal from the testing well compared to DMSO control wells. The background signal was determined by the average luminescence signal from the HCV protease inhibitor treated wells and was subtracted from the signal from the testing wells as well as the DMSO control wells. Following 3-fold serial dilutions, the EC50 and CC50 values were calculated by fitting % inhibition at each concentration to the following equation: % inhibition=100%/[EC50/[I])^b+1]
Where b is Hill's coefficient. See, for reference, Hill, A. V., The Possible Effects of the Aggregation of the Molecules of Hæmoglobin on its Dissociation Curves, J. Physiol. 40: iv-vii. (1910). […]
(Replicon systems follow genome replication, usually without infectious particles.)
Take `C[C@@H]1CC[C@@H](C(=O)N(c2cc(C#CC(C)(C)C)sc2C(=O)O)[C@H]2CC[C@@H](OC3CCOC3)CC2)[C@@H](O)C1` (single isomer, unassigned) [Compound 228]: the inhibition (usually the drop in the measured response relative to a control, in per cent) at 2 µM is 99.9%.
Same read-out and setting: for `CC1=CCC(C(=O)N(c2cc(C#CC(C)(C)C)sc2C(=O)O)[C@H]2CC[C@H](O[C@H]3CCOC3)CC2)[C@@H](C)C1` (single isomer, unassigned) [Compound 302, 5-(3,3-dimethyl-but-1-ynyl)-3-{(4,6S-dimethyl-cyclohex-3-enecarbonyl)-[4-(tetrahydro-furan-3S-yloxy)-trans-cyclohexyl]-amino}-thiophene-2-carboxylic acid] the value was 100%; for `CC1=CCC(C(=O)N(c2cc(C#CC(C)(C)C)sc2C(=O)O)[C@H]2CC[C@H](O[C@H]3CCOC3)CC2)[C@H](C)C1` (single isomer, unassigned) [Compound 303], 99.9%.
On the same count and under the same terms, for `CC1=CCC(C(=O)N(c2cc(C#CC(C)(C)C)sc2C(=O)O)[C@H]2CC[C@H](O[C@@H]3CCOC3)CC2)[C@H](C)C1` (single isomer, unassigned) [Compound 305, 5-(3,3-dimethyl-but-1-ynyl)-3-{(4,6R-dimethyl-cyclohex-3-enecarbonyl)-[4-(tetrahydro-furan-3R-yloxy)-trans-cyclohexyl]-amino}-thiophene-2-carboxylic acid] the value was 100%.
Same read-out and setting: for `CC1=CCC(C(=O)N(c2cc(C#CC(C)(C)C)sc2C(=O)O)[C@H]2CC[C@H](O[C@@H]3CCOC3)CC2)[C@@H](C)C1` (single isomer, unassigned) [Compound 307, 5-(3,3-Dimethyl-but-1-ynyl)-3-{(4,6S-dimethyl-cyclohex-3-enecarbonyl)-[4-(tetrahydro-furan-3R-yloxy)-trans-cyclohexyl]-amino}-thiophene-2-carboxylic acid] the value was 100%.
As to `CC(C)(C)C#Cc1cc(N(C(=O)[C@H]2CC[C@H](C)CC2)[C@H]2CC[C@H](Oc3ccccn3)CC2)c(C(=O)O)s1` [Compound 1, 5-(3,3-Dimethyl-but-1-ynyl)-3-{(trans-4-methyl-cyclohexanecarbonyl)-[trans-4-(pyridin-2-yloxy)-cyclohexyl]-amino}-thiophene-2-carboxylic acid], at 2 µM the inhibition was 99.8%.
Still for that read-out and setting: for `CC(C)(C)C#Cc1cc(N(C(=O)[C@H]2CC[C@H](C)CC2)[C@H]2CC[C@H](Oc3cnccn3)CC2)c(C(=O)O)s1` [Compound 2, 5-(3,3-Dimethyl-but-1-ynyl)-3-{(trans-4-methyl-cyclohexanecarbonyl)-[trans-4-(pyrazin-2-yloxy)-cyclohexyl]-amino}-thiophene-2-carboxylic acid] the value was 99.6%; for `Cc1ccc(O[C@H]2CC[C@H](N(c3cc(C#CC(C)(C)C)sc3C(=O)O)C(=O)[C@H]3CC[C@H](C)CC3)CC2)nn1` [Compound 3, 5-(3,3-Dimethyl-but-1-ynyl)-3-{(trans-4-methyl-cyclohexanecarbonyl)-[trans-4-(6-methyl-pyridazin-3-yloxy)-cyclohexyl]-amino}-thiophene-2-carboxylic acid], 100%; for `CC(C)(C)C#Cc1cc(N(C(=O)[C@H]2CC[C@H](C)CC2)[C@H]2CC[C@H](Oc3ncccn3)CC2)c(C(=O)O)s1` [Compound 4, 5-(3,3-Dimethyl-but-1-ynyl)-3-{(trans-4-methyl-cyclohexanecarbonyl)-[trans-4-(pyrimidin-2-yloxy)-cyclohexyl]-amino}-thiophene-2-carboxylic acid], 99.9%.
Same read-out and setting: for `CC(C)(C)C#Cc1cc(N(C(=O)[C@H]2CC[C@H](C)CC2)[C@H]2CC[C@H](Oc3cccnc3)CC2)c(C(=O)O)s1` [Compound 5, 5-(3,3-Dimethyl-but-1-ynyl)-3-{(trans-4-methyl-cyclohexanecarbonyl)-[trans-4-(pyridin-3-yloxy)-cyclohexyl]-amino}-thiophene-2-carboxylic acid] the value was 99.8%; for `CC(C)(C)C#Cc1cc(N(C(=O)[C@H]2CC[C@H](C)CC2)[C@H]2CC[C@H](Oc3cccc(S(C)(=O)=O)n3)CC2)c(C(=O)O)s1` [Compound 6, 5-(3,3-Dimethyl-but-1-ynyl)-3-[[trans-4-(6-methanesulfonyl-pyridin-2-yloxy)-cyclohexyl]-(trans-4-methyl-cyclohexanecarbonyl)-amino]-thiophene-2-carboxylic acid], 99.9%.
Take `Cc1ccc(O[C@H]2CC[C@H](N(c3cc(C#CC(C)(C)C)sc3C(=O)O)C(=O)[C@H]3CC[C@H](C)CC3)CC2)cn1` [Compound 7, 5-(3,3-Dimethyl-but-1-ynyl)-3-{(trans-4-methyl-cyclohexanecarbonyl)-[trans-4-(6-methyl-pyridin-3-yloxy)-cyclohexyl]-amino}-thiophene-2-carboxylic acid]: the inhibition at 2 µM was found to be 99.8%.
Compound `Cc1cccc(O[C@H]2CC[C@H](N(c3cc(C#CC(C)(C)C)sc3C(=O)O)C(=O)[C@H]3CC[C@H](C)CC3)CC2)n1` [Compound 8, 5-(3,3-Dimethyl-but-1-ynyl)-3-{(trans-4-methyl-cyclohexanecarbonyl)-[trans-4-(6-methyl-pyridin-2-yloxy)-cyclohexyl]-amino}-thiophene-2-carboxylic acid] yielded an inhibition at 2 µM of 96.7%.
The compound `CC(C)(C)C#Cc1cc(N(C(=O)[C@H]2CC[C@H](C)CC2)[C@H]2CC[C@H](Oc3ccc(C#N)cn3)CC2)c(C(=O)O)s1` [Compound 9, 3-[[trans-4-(5-Cyano-pyridin-2-yloxy)-cyclohexyl]-(trans-4-methyl-cyclohexanecarbonyl)-amino]-5-(3,3-dimethyl-but-1-ynyl)-thiophene-2-carboxylic acid] gave an inhibition at 2 µM of 99.3%.

Staying with this assay, now noted: Huh-7 HCV replicon cells, 3 days incubation.
On to “5-(3,3-Dimethyl-but-1-ynyl)-3-{(trans-4-methyl-cyclohexanecarbonyl)-[trans-4-(1-oxy-pyridin-3-yloxy)-cyclohexyl]-amino}-thiophene-2-carboxylic acid [Compound 24]”, for which the % inhibition (usually the drop in the measured response relative to a control, in per cent) at 2μM came to 99.9%.
Still for that read-out and setting: for “5-(3,3-dimethylbut-1-ynyl)-3-((1r,4R)-4-methyl-N-((1s,4S)-4-(oxetan-3-yloxy)cyclohexyl)cyclohexanecarboxamido)-5-(2-(1-(trifluoromethyl)cyclopropyl)ethynyl)thiophene-2-carboxylic acid [Compound 347]” the value was 99.97%; for `CC1=CCC(C(=O)N(c2cc(C#CC(C)(C)C)sc2C(=O)O)[C@H]2CC[C@H](O[C@@H]3CCOC3)CC2)[C@H](C)C1` (single isomer, unassigned) [Compound 306, 5-(3,3-Dimethyl-but-1-ynyl)-3-{(4,6R-dimethyl-cyclohex-3-enecarbonyl)-[4-(tetrahydro-furan-3R-yloxy)-trans-cyclohexyl]-amino}-thiophene-2-carboxylic acid], 99.99%; for `CC1=CCC(C(=O)N(c2cc(C#CC(C)(C)C)sc2C(=O)O)[C@H]2CC[C@H](O[C@@H]3CCOC3)CC2)[C@@H](C)C1` (single isomer, unassigned) [Compound 308, 5-(3,3-Dimethyl-but-1-ynyl)-3-{(4,6S-dimethyl-cyclohex-3-enecarbonyl)-[4-(tetrahydro-furan-3R-yloxy)-trans-cyclohexyl]-amino}-thiophene-2-carboxylic acid], 99.99%.
